Values after ≈ are worked out from the molar mass of the structure shown. Read-outs that look alike come from different tables or passages of the source.
Experiments:
Assay type in all cases: cell-based
Staphylococcus aureus = test: Broth microdilution MIC assay, Staphylococcus aureus
Experimental: (§1) This example illustrates evaluating in vitro activity of (Z)-2-(3,6-dimethylhepta-2,5-dien-1-yl)-5-pentylbenzene-1,3-diol (Example 1, “M194”) against gram-positive and gram-negative bacteria. In this study, in vitro activity was determined against a diverse panel of Gram-positive and Gram-negative bacteria associated with a variety of infections. Broth microdilution MIC assays were conducted following guidelines recommended by the Clinical and Laboratory Standards Institute (CLSI; 1-3).
(§2) The compound M194 was provided in powder form and initially stored at room temperature prior to testing. A stock solution of M194 in DMSO/DMSO solvent/diluent was made at 101× the final testing concentration and tested over ranges of 0.06-64 μg/mL.
(§3) Test organisms consisted of isolates from the American Type Culture Collection (ATCC; Manassas, VA) and the Micromyx Repository (MMX; Kalamazoo, MI). Upon initial receipt at Microbiologics, the organisms were sub-cultured onto an appropriate agar medium and incubated under atmospheric conditions required for growth. Following incubation for 18 to 24 hr at 35° C. in the appropriate atmosphere, colonies were harvested from these plates and cell suspensions were prepared and frozen at −80° C. with a cryoprotectant. Prior to testing, isolates were streaked from frozen vials onto the appropriate agar. Unless otherwise noted, Trypticase Soy Agar with 5% sheep blood (Remel; Lenexa, KS; Lot No. 693244) was used and inoculated plates were incubated at 35° C. overnight in ambient atmosphere. Haemophilus influenzae isolates were streaked onto Chocolate agar (Becton Dickinson [BD]; Sparks, MD; Lot No. 3157581). Streptococcus spp., Moraxella spp., and H. influenzae inoculated plates were incubated at 35° C. overnight in 5% CO2.
(§4) Organisms were tested in the appropriate media according to CLSI guidelines (1-3). Cation-Adjusted Mueller Hinton broth (CAMHB) was made by supplementing Mueller Hinton Broth (MHB; BD; Lot No. 1285575) to a final concentration of 20 mg/L Ca++ (Sigma; St. Louis, MO; Lot. No. 084K0215) and 12.5 mg/L Mg++ (VWR; Radnor, PA; Lot. No. 22C0856290). CAMHB was used for broth microdilution testing except for isolates requiring specialized media as described below.
(§5) The MIC assay method followed the procedures described by CLSI and employed automated liquid handlers to conduct serial dilutions and liquid transfers. Automated liquid handlers included the Multidrop Combi (ThermoScientific), Biomek 3000, and Biomek FX (Beckman Coulter; Fullerton, CA).
(§6) The wells in columns 2 through 12 in standard 96-well microdilution plates (Costar 3795) were filled with 150 μl of the appropriate diluent. These would become the “mother plates” from which “daughter,” or test plates, would be prepared. […]

[1] = tested on: Staphylococcus epidermidis; test: Broth microdilution MIC assay, Staphylococcus epidermidis
Experimental: as §1, §2
(§7) Test organisms consisted of isolates from the American Type Culture Collection (ATCC; Manassas, VA) and the Micromyx Repository (MMX; Kalamazoo, MI). Upon initial receipt at Microbiologics, the organisms were sub-cultured onto an appropriate agar medium and incubated under atmospheric conditions required for growth. Following incubation for 18 to 24 hr at 35° C. in the appropriate atmosphere, colonies were harvested from these plates and cell suspensions were prepared and frozen at −80° C. with a cryoprotectant. Prior to testing, isolates were streaked from frozen vials onto the appropriate agar. […]

[2] = tested on: Staphylococcus saprophyticus; test: Broth microdilution MIC assay, Staphylococcus saprophyticus; conditions: type MSS
Experimental: as §1, §2, §7

Enterococcus faecalis = test: Broth microdilution MIC assay, Enterococcus faecalis
Experimental: as §1, §2, §3, §4, §5, §6

Enterococcus faecium = test: Broth microdilution MIC assay, Enterococcus faecium
Experimental: as §1, §2, §7

Streptococcus pyogenes = test: Broth microdilution MIC assay, Streptococcus pyogenes
Experimental: as §1, §2, §7

Streptococcus agalactiae = test: Broth microdilution MIC assay, Streptococcus agalactiae
Experimental: as §1, §2, §7

[3] = tested on: Streptococcus constellatus; test: Broth microdilution MIC assay, Streptococcus constellatus; conditions: type —
Experimental: as §1, §2, §7

Streptococcus oralis = test: Broth microdilution MIC assay, Streptococcus oralis; conditions: type ERYR
Experimental: as §1, §2, §7

Streptococcus mutans = test: Broth microdilution MIC assay, Streptococcus mutans; conditions: type —
Experimental: as §1, §2, §7

Listeria monocytogenes = test: Broth microdilution MIC assay, Listeria monocytogenes; conditions: type —
Experimental: as §1, §2, §7

Escherichia coli = test: Broth microdilution MIC assay, Escherichia coli
Experimental: as §1, §2, §3
(§8) Organisms were tested in the appropriate media according to CLSI guidelines (1-3). […]

Klebsiella pneumoniae = test: Broth microdilution MIC assay, Klebsiella pneumoniae
Experimental: as §1, §2, §7

Enterobacter cloacae = test: Broth microdilution MIC assay, Enterobacter cloacae; conditions: type —
Experimental: as §1, §2, §7

Citrobacter freundii = test: Broth microdilution MIC assay, Citrobacter freundii; conditions: type —
Experimental: as §1, §2, §7

Proteus mirabilis = test: Broth microdilution MIC assay, Proteus mirabilis; conditions: type —
Experimental: as §1, §2, §7

Serratia marcescens = test: Broth microdilution MIC assay, Serratia marcescens; conditions: type —
Experimental: as §1, §2, §7

Pseudomonas aeruginosa = test: Broth microdilution MIC assay, Pseudomonas aeruginosa; conditions: for MIC: Pseudomonas aeruginosa
Experimental: as §1, §2, §3, §8

Acinetobacter baumannii = test: Broth microdilution MIC assay, Acinetobacter baumannii
Experimental: as §1, §2, §3, §8

Haemophilus influenzae = test: Broth microdilution MIC assay, Haemophilus influenzae; conditions: for MIC: Haemophilus influenzae
Experimental: as §1, §2, §3, §8

Moraxella catarrhalis = test: Broth microdilution MIC assay, Moraxella catarrhalis
Experimental: as §1, §2, §7

Neisseria gonorrhoeae = test: Broth microdilution MIC assay, Neisseria gonorrhoeae
Experimental: as §1, §2, §7

[4] = tested on: Staphylococcus spp. and Enterococcus spp.; test: Broth microdilution MIC assay, Staphylococcus spp. and Enterococcus spp.; conditions: all Staphylococcus spp.
Experimental: as §1, §2, §7

[5] = tested on: Streptococcus spp. and L. monocytogenes; test: Broth microdilution MIC assay, Streptococcus spp. and L. monocytogenes; conditions: all Streptococcus spp., compared with Staphylococcus spp. and Enterococcus spp.
Experimental: as §1, §2, §7

Enterobacterales = test: Broth microdilution MIC assay, Enterobacterales; conditions: any of the Enterobacterales
Experimental: as §1, §2, §7

Compound `CCCCCc1cc(O)c(C/C=C(/C)CC=C(C)C)c(O)c1` [Example M194, (Z)-2-(3,6-dimethylhepta-2,5-dien-1-yl)-5-pentylbenzene-1,3-diol] has an MIC (Staphylococcus aureus; MRSA, type MRSA, read-out: MIC) of 1 µg/mL (≈ 3.31 µM), an MIC (Staphylococcus aureus; MSSA, type MSSA, QC, read-out: MIC) of 2 µg/mL (≈ 6.61 µM) and an MIC (Staphylococcus aureus; MSSA, type MSSA, read-out: MIC) of 1 µg/mL (≈ 3.31 µM). The MIC (Staphylococcus aureus; VISA, type VISA) was 2 µg/mL (≈ 6.61 µM), the MIC ([1]; type MRSE) was 1 µg/mL (≈ 3.31 µM) and the MIC ([1]; type MSSE) was 1 µg/mL (≈ 3.31 µM). The MIC [2] was 2 µg/mL (≈ 6.61 µM), the MIC (Enterococcus faecalis; type VSE, QC, read-out: MIC) was 2 µg/mL (≈ 6.61 µM) and the MIC (Enterococcus faecalis; type VSE, read-out: MIC) was 1 µg/mL (≈ 3.31 µM). For the same compound, the MIC (Enterococcus faecalis; type vanA) was 1 µg/mL (≈ 3.31 µM), the MIC (Enterococcus faecalis; type vanB) was 1 µg/mL (≈ 3.31 µM) and the MIC (Enterococcus faecium; type vanA) was 1 µg/mL (≈ 3.31 µM). The MIC (Enterococcus faecium; type —, read-out: MIC) was 1 µg/mL (≈ 3.31 µM), the MIC (Streptococcus pyogenes; type ERYR) was 16 µg/mL (≈ 52.9 µM) and the MIC (Streptococcus pyogenes; type —, read-out: MIC) was 16 µg/mL (≈ 52.9 µM). The MIC (Streptococcus agalactiae; type MLS) was 16 µg/mL (≈ 52.9 µM), the MIC (Streptococcus agalactiae; type —, read-out: MIC) was 16 µg/mL (≈ 52.9 µM) and the MIC [3] was 16 µg/mL (≈ 52.9 µM). For the same compound, the MIC (Streptococcus oralis) was 32 µg/mL (≈ 106 µM), the MIC (Streptococcus mutans) was 32 µg/mL (≈ 106 µM) and the MIC (Listeria monocytogenes) was 32 µg/mL (≈ 106 µM). For the same compound, the MIC (Escherichia coli; type ESBL) was over 64 µg/mL, the MIC (Escherichia coli; type NDM-1) was over 64 µg/mL and the MIC (Escherichia coli; type QC, read-out: MIC) was over 64 µg/mL. The MIC (Klebsiella pneumoniae; type QC, read-out: MIC) was over 64 µg/mL, the MIC (Klebsiella pneumoniae; type —) was over 64 µg/mL and the MIC (Enterobacter cloacae) was over 64 µg/mL. For the same compound, the MIC (Citrobacter freundii) was over 64 µg/mL, the MIC (Proteus mirabilis) was over 64 µg/mL and the MIC (Serratia marcescens) was over 64 µg/mL. For the same compound, the “in vitro activity (in words)” value (Pseudomonas aeruginosa; P. aeruginosa) was “not active”, the MIC (Pseudomonas aeruginosa; type MDR, VIM) was over 64 µg/mL and the MIC (Pseudomonas aeruginosa; type QC, read-out: MIC) was over 64 µg/mL. The “in vitro activity (in words)” value (Acinetobacter baumannii) was “not active”, the MIC (Acinetobacter baumannii; type MDR) was over 64 µg/mL and the MIC (Acinetobacter baumannii; type —, read-out: MIC) was over 64 µg/mL. The MIC (Haemophilus influenzae; ATCC49247, type QC (ATCC 49247 isolate)) was 4 µg/mL (≈ 13.2 µM), the “in vitro activity (in words)” value (Haemophilus influenzae; H. influenzae) was “had activity” and the MIC (Haemophilus influenzae; type BL+ (beta-lactamase positive isolate MMX 7988)) was 32 µg/mL (≈ 106 µM). For the same compound, the “in vitro activity (in words)” value (Moraxella catarrhalis) was “had activity”, the MIC (Moraxella catarrhalis; type BL+) was 2 µg/mL (≈ 6.61 µM) and the “in vitro activity (in words)” value (Neisseria gonorrhoeae; N. gonorrhoeae) was “had activity”. The MIC (Neisseria gonorrhoeae; Neisseria gonorrhoeae, type QC) was 1 µg/mL (≈ 3.31 µM), the “in vitro activity (in words)” value [4] was “had activity” and the “in vitro activity (in words)” value [5] was “to a lesser degree”. The “in vitro activity (in words)” value (Enterobacterales) was “not active”.
